Data: US10695366B2 (ZS PHARMA, INC., priority 2013, dated 2020)

Tested on: beagles
Details: dog, in vivo
Procedure: The following 14-day study is designed to show the effect of particle size and particle form on the urinary pH and presence of crystals in the urine. The compounds above are administered to beagles orally by mixing with wet dog food. The regimen is administered 3 times a day at 6 hour intervals over a 12 hour period in the following manner:
The dose levels were 100 or 600 mg/kg/dose.

## microporous zirconium silicate [ZS-9]
  test article-related findings (direct or indirect), microscopic: not present
